In brackets after ≈: the same amount, converted by molar mass. Blank lines part the entries; values can stand above or below the molecule they belong to. Activity calls are given as the source filed them. The rule behind the calls is not given here.
Columns and labels:
P388 = assay: Cytotoxicity against mouse P388 cells; format: functional; settings: read-out: ED50 (the source's name)
Enterococcus faecalis = assay: Antimicrobial activity against Enterococcus faecalis ATCC 29212; format: functional, organism-based
Enterobacter cloacae = assay: Antimicrobial activity against Enterobacter cloacae ATCC 13047; format: functional, organism-based
[1] = Cytotoxicity against human breast cancer cells; format: functional; settings: Cancer cell lines
[2] = Cytotoxicity against human prostate cancer cells; format: functional; settings: Cancer cell lines
[3] = Solubility in water at 25 degC; format: physicochemical
Escherichia coli = assay: Antimicrobial activity against Escherichia coli ATCC 25922; format: functional, organism-based
Neisseria gonorrhoeae = assay: Antimicrobial activity against Neisseria gonorrhoeae ATCC 49226; format: functional, organism-based
Staphylococcus aureus = assay: Antimicrobial activity against Staphylococcus aureus ATCC 29213; format: functional, organism-based
[4] = Cytotoxicity against human pancreatic cancer cells; format: functional; settings: Cancer cell lines
Streptococcus pneumoniae = assay: Antimicrobial activity against Streptococcus pneumoniae ATCC 6303; format: functional, organism-based
[5] = Cytotoxicity against human colon cancer cells; format: functional; settings: Cancer cell lines
Micrococcus luteus = assay: Antimicrobial activity against Micrococcus luteus Presque Isle 456; format: functional, organism-based
Cryptococcus neoformans = assay: Antimicrobial activity against Cryptococcus neoformans ATCC 90112; format: functional, organism-based
Candida albicans = assay: Antimicrobial activity against Candida albicans ATCC 90028; format: functional, organism-based
[6] = test system: Stenotrophomonas maltophilia; assay: Antimicrobial activity against Stenotrophomonas maltophilia ATCC 13637; format: functional, organism-based
[7] = Cytotoxicity against human brain cancer cells; format: functional; settings: Cancer cell lines
[8] = Inhibition of tubulin polymerization
[9] = Cytotoxicity against human lung cancer cells; format: functional; settings: Cancer cell lines

Compound: O=C1CCc2ccc(OCc3ccccc3)c(c2)Oc2ccc(cc2)/C=C\CO1
EC50 (P388): > 100 µg/mL

Compound: O=C1CCc2ccc(O)c(c2)Oc2ccc(cc2)/C=C\CO1
Activity (Enterococcus faecalis): inactive | Activity (Enterobacter cloacae): inactive | GI50 [1]: 6.6 µg/mL (≈ 22.3 µM) | GI50 [2]: 2.7 µg/mL (≈ 9.11 µM) | solubility ([3]; buffer): 0.5 mg/mL (≈ 1690 µM) | Activity (Escherichia coli): inactive | Activity (Neisseria gonorrhoeae): inactive | Activity (Staphylococcus aureus): inactive | GI50 [4]: 4.8 µg/mL (≈ 16.2 µM) | Activity (Streptococcus pneumoniae): inactive | GI50 [5]: > 10 µg/mL | Activity (Micrococcus luteus): inactive | Activity (Cryptococcus neoformans): inactive | Activity (Candida albicans): inactive | Activity [6]: inactive | EC50 (P388): 5.2 µg/mL (≈ 17.5 µM) | GI50 [7]: 4.7 µg/mL (≈ 15.9 µM) | IC50 [8]: > 40 µM | GI50 [9]: 6 µg/mL (≈ 20.2 µM)

Compound: O=C1CCc2ccc(OP(=O)([O-])[O-])c(c2)Oc2ccc(cc2)/C=C\CO1.[Na+].[Na+]
GI50 [1]: 30.5 µg/mL | GI50 [2]: 18.2 µg/mL | solubility ([3]; buffer): > 70 mg/mL | GI50 [4]: 22.1 µg/mL | GI50 [5]: 25.5 µg/mL | EC50 (P388): 23.9 µg/mL | GI50 [7]: 36.3 µg/mL | GI50 [9]: 13.3 µg/mL

Compound: O=C(CCc1ccc(OCc2ccccc2)c(O)c1)OC/C=C\c1ccc(F)c([N+](=O)[O-])c1
EC50 (P388): > 100 µg/mL

Compound: O=C1CCc2ccc(O)c(c2)Oc2ccc(cc2)[C@H]2O[C@@H]2CO1
EC50 (P388): 3.3 µg/mL (≈ 10.6 µM) | IC50 [8]: > 40 µM

Compound: O=C1CCc2ccc(O)c(c2)Oc2ccc(cc2)CCCO1 [CORNICULATOLIDE A]
Activity (Enterococcus faecalis): inactive | Activity (Enterobacter cloacae): inactive | Activity (Escherichia coli): inactive | Activity (Neisseria gonorrhoeae): inactive | Activity (Staphylococcus aureus): inactive | Activity (Streptococcus pneumoniae): inactive | Activity (Micrococcus luteus): inactive | Activity (Cryptococcus neoformans): inactive | Activity (Candida albicans): inactive | Activity [6]: inactive | EC50 (P388): > 100 µg/mL

IC50 [8]: 5 µM
Compound: COc1ccc(C[C@@H](O)c2cc(OC)c(OC)c(OC)c2)cc1O [COMBRETASTATIN]
EC50 (P388): 0.011 µg/mL (≈ 0.0329 µM)

Compound: C1COCCN1.C1COCCN1.O=C1CCc2ccc(OP(=O)(O)O)c(c2)Oc2ccc(cc2)/C=C\CO1
GI50 [1]: > 10 µg/mL | GI50 [2]: > 10 µg/mL | solubility ([3]; water, read-out: solubility): 5 mg/mL | GI50 [4]: > 10 µg/mL | GI50 [5]: > 10 µg/mL | EC50 (P388): 86.2 µg/mL | GI50 [7]: > 10 µg/mL | GI50 [9]: > 10 µg/mL

Compound: COc1ccc(/C=C\c2cc(OC)c(OC)c(OC)c2)cc1O [COMBRETASTATIN A4]
EC50 (P388): 0.0034 µg/mL (≈ 0.0107 µM)

Compound: O=C(CCc1ccc(OCc2ccccc2)c(O)c1)OC/C=C\c1ccc(Br)cc1
EC50 (P388): > 100 µg/mL

Compound: COc1ccc2cc1Oc1ccc(cc1)/C=C\COC(=O)CC2
GI50 [1]: 0.83 µg/mL (≈ 2.67 µM) | GI50 [2]: 5.6 µg/mL (≈ 18 µM) | GI50 [4]: 7.3 µg/mL (≈ 23.5 µM) | GI50 [5]: 9.4 µg/mL (≈ 30.3 µM) | EC50 (P388): 8.1 µg/mL (≈ 26.1 µM) | GI50 [7]: 2.2 µg/mL (≈ 7.09 µM) | GI50 [9]: 6.6 µg/mL (≈ 21.3 µM)

Compound: COc1ccc(CCC(=O)OC/C=C\c2ccc(F)c([N+](=O)[O-])c2)cc1O
EC50 (P388): 27 µg/mL (≈ 71.9 µM)

Compound: O=C1CCc2ccc(OP(=O)([O-])[O-])c(c2)Oc2ccc(cc2)/C=C\CO1.[K+].[K+]
GI50 [1]: 34.5 µg/mL | GI50 [2]: 14.4 µg/mL | solubility ([3]; buffer): > 50 mg/mL | GI50 [4]: 40.1 µg/mL | GI50 [5]: 40.6 µg/mL | GI50 [7]: 45.2 µg/mL | GI50 [9]: 27.8 µg/mL

Compound: O=C1CCc2ccc(OP(=O)([O-])[O-])c(c2)Oc2ccc(cc2)/C=C\CO1.[Li+].[Li+]
GI50 [1]: 26.1 µg/mL | GI50 [2]: 4.3 µg/mL | solubility ([3]; buffer): 20 mg/mL | GI50 [4]: 35.9 µg/mL | GI50 [5]: 27.5 µg/mL | EC50 (P388): 27.1 µg/mL | GI50 [7]: 37.9 µg/mL | GI50 [9]: 14.4 µg/mL

Compound: COc1ccc(CCC(=O)OCCCc2ccc(Br)cc2)cc1O
EC50 (P388): > 100 µg/mL

Compound: O=C1CCc2ccc(OCc3ccccc3)c(c2)Oc2ccc(cc2)CCCO1
EC50 (P388): > 100 µg/mL

Compound: COc1ccc(CCC(=O)OC/C=C\c2ccc(Br)cc2)cc1O
GI50 [1]: 16.4 µg/mL (≈ 41.9 µM) | GI50 [2]: 8.9 µg/mL (≈ 22.7 µM) | GI50 [4]: 16.4 µg/mL (≈ 41.9 µM) | GI50 [5]: 17.1 µg/mL (≈ 43.7 µM) | EC50 (P388): > 100 µg/mL | GI50 [7]: 18.5 µg/mL (≈ 47.3 µM) | GI50 [9]: 16.5 µg/mL (≈ 42.2 µM)

Reference: ChEMBL document CHEMBL1152314, “Antineoplastic agents. 565. Synthesis of combretastatin D-2 phosphate and dihydro-combretastatin D-2” (J Nat Prod, 2009)
